Measurements reported in ChEMBL document CHEMBL1141750, “Phenanthroindolizidine alkaloids from the stems of Ficus septica” (2005).

How the values were obtained:
[1] = Cytotoxicity against human HONE1 at 10 uM after 3 days by MTS reduction assay; assay type: functional; settings: HONE1, 72 h
NUGC = experiment: Cytotoxicity against human NUGC at 10 uM after 3 days by MTS reduction assay; assay type: functional; settings: 72 h

Work on COc1cc2c3c(c4ccc(OC)c(OC)c4c2cc1OC)C[N@@+]1([O-])CCC[C@@H]1C3 yielded an inhibition at 10 µM [1] of 92% and an inhibition at 10 µM (NUGC) of 94%.

With COc1cc2c3c(c4ccc(OC)c(OC)c4c2cc1OC)C[C@H]1CCC[N@+]1([O-])C3 the inhibition at 10 µM [1] was 87% and the inhibition at 10 µM (NUGC) was 93%.

COc1cc2c3c(c4cc(OC)c(OC)cc4c2cc1OC)CN1CCC[C@@H]1C3 [TYLOPHORINE] showed an inhibition at 10 µM [1] of 80% and an inhibition at 10 µM (NUGC) of 85%.
